Laboratory results taken from US10624908B2, “Phosphopantetheine compounds alone or in combination with HMG-CoA reductase inhibitors for lowering serum cholesterol and serum triglicerides” (COMET THERAPEUTICS, INC., priority 2014, dated 2020).

Assays:
HEK293 cells = assay: Rescue potential of CoA and 4′-phosphopantetheine in HOPAN assay; type: cell-based, mammalian; details: HOPAN 0.5 mM, 250 μM compound, 4 days
Protocol: Mammalian HEK293 cells treated with the chemical inhibitor HOPAN (hopanthenate, CAS 17097-76-6, IUPAC: calcium 4-[[(2R)-2,4-dihydroxy-3,3-dimethylbutanoyl]amino]butanoate). Cells treated with HOPAN show a reduction in intracellular CoA levels, which induces a decrease in cell viability.
Materials and Methods: HEK293 cells were cultured in vitamin B5 deficient DMEM (Thermo Scientific) supplemented with 10% dialysed FCS (Thermo Scientific) with and without HOPAN (0.5 mM) and CoA and 4′-phosphopantetheine for 4 days. 250 μM of CoA and 4′-phosphopantetheine was used for determination of rescue efficiency.

[1] = Conversion of CoA into 4′-phosphopantetheine in human serum (HPLC)
Protocol: (§1) Materials and Methods: CoA (purchased from Sigma) was incubated at a final concentration of 10 μM human serum for 6 hours at 37° C. After incubation, the samples were processed to remove proteins and HPLC analysis was used to assess the amount of remaining compound CoA and amount of generated 4′-phosphopantetheine, indicating conversion of CoA to 4′-phosphopantetheine.

[2] = Translocation through cell membranes / uptake by cells; type: cell-based
[3] = 3 h, 10 μM
Protocol: as §1

[4] = patients with moderate dyslipidemia; cited from earlier work
[5] = 400 U Coenzyme A/day for 3 weeks combined with statins, oral; cited from earlier work

Structure (SMILES): CC(C)(COP(=O)(O)O)[C@@H](O)C(=O)NCCC(=O)NCCS [4′-phosphopantetheine]
- rescue of HOPAN induced cell count defect (HEK293 cells; FIG. 2): rescued the cell count defect
- rescue of HOPAN induced cell count defect (HEK293 cells; FIG. 2, listed as 4PPT): as potent as CoA
- rescue of HOPAN induced decrease of intracellular CoA levels (HEK293 cells; FIG. 3): significantly rescued
- rescue of HOPAN induced decrease of intracellular CoA levels (HEK293 cells; FIG. 3, listed as 4PPT): as potent as CoA
- stability in human serum ([1]; human serum over 6 hours incubation): stable
- concentrations of 4′-phosphopantetheine generated from CoA in human serum ([1]; human serum, 37° C., 6 hours incubation of CoA, HPLC): observed to increase
- translocation through cell membranes / uptake by cells [2]: able to effectively translocate through cell membranes

Structure (SMILES): CC(C)(COP(=O)(O)OP(=O)(O)OC[C@H]1O[C@@H](n2cnc3c(N)ncnc32)[C@H](O)[C@@H]1OP(=O)(O)O)[C@@H](O)C(=O)NCCC(=O)NCCS [CoA, Coenzyme A, reference compound]
- CoA degraded in human serum [3]: 60%
- plasma triglyceride levels [4]: effectively reduce plasma triglyceride levels
- rescue of HOPAN induced cell count defect (HEK293 cells; FIG. 2): rescued the cell count defect
- rescue of HOPAN induced decrease of intracellular CoA levels (HEK293 cells; FIG. 3): significantly rescued
- toxicity [5]: no toxicity was observed
- translocation through cell membranes / uptake by cells [2]: cells do not absorb CoA directly
